Results taken from publication PMC7774954, “Interactomic affinity profiling by holdup assay: Acetylation and distal residues impact the PDZome-binding specificity of PTEN phosphatase” (PLoS ONE, 2020).

Tested on: 266 human PDZ domains (PDZome)
Experiment: Holdup assay (chromatographic retention, PDZome-binding profile, BI)
Set-up: key to maximal BI / Max BI / BI: binding intensity: 0.00 = no binding, 1.00 = maximal binding
How it was run: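 Streptavidin resin was saturated with biotinylated 11-mer or 13-mer PTEN PBM peptides (42 μM loading solution), with biotin-only resin as the reference. Resins were incubated for 15 min with lysates containing MBP- or thioredoxin-tagged PDZ domains adjusted to 4 μM, in singlicate. Free PDZ in the filtrate was quantified by capillary electrophoresis, and depletion versus reference gave binding intensity (0–1).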

CC[C@H](C)[C@H](NC(=O)[C@H](CCC(N)=O)NC(=O)[C@@H](NC(=O)[C@H](Cc1c[nH]cn1)NC(=O)[C@H](CCC(N)=O)NC(=O)[C@H](CC(=O)O)NC(=O)[C@H](CCC(=O)O)NC(=O)[C@H](CC(=O)O)NC(=O)CCC(=O)NCCCOCCOCCOCCCNC(=O)CCCC[C@@H]1SC[C@@H]2NC(=O)N[C@@H]21)[C@@H](C)O)C(=O)N[C@H](C(=O)N[C@@H](CCCCNC(C)=O)C(=O)N[C@H](C(=O)O)C(C)C)[C@@H](C)O [PTEN_Ac]
number of additional new PDZ partners not detected for PTEN_11 (BI>0.20, compared with PTEN_11): at least 20 | BI (PDZ domain MPDZ-2): 0.353 | BI (PDZ domain MPDZ-3): 0.002 | BI (PDZ domain MPDZ-4): 0.029 | BI (PDZ domain MPDZ-5): -0.014 | BI (PDZ domain MPDZ-6): -0.058 | BI (PDZ domain MPDZ-7): 0.624 | BI (PDZ domain MPDZ-8): 0.172 | BI (PDZ domain MPDZ-9 (gene NHERF2, 2)): 0.016 | BI (PDZ domain MPDZ-12): 0.019 | BI (PDZ domain MPDZ-13): 0.351 | BI (PDZ domain MPP1-1): -0.054 | BI (PDZ domain MPP3-1): -0.063 | BI (PDZ domain MPP4-1): -0.043 | BI (PDZ domain MPP5-1): -0.048 | BI (PDZ domain MPP6-1): -0.03 | BI (PDZ domain MPP7-1): -0.045 | BI (PDZ domain NHERF1-2): 0.046 | BI (PDZ domain NHERF3-1): 0.45 | BI (PDZ domain NHERF3-2): 0.105 | BI (PDZ domain NHERF3-3): 0.021 | BI (PDZ domain NHERF3-4): -0.017 | BI (PDZ domain NHERF4-1): -0.007 | BI (PDZ domain NHERF4-2): 0.014 | BI (PDZ domain NHERF4-3): -0.031 | BI (PDZ domain NHERF4-4): -0.03 | BI (PDZ domain NOS1-1): 0.106 | BI (PDZ domain PARD3-1, first of two lines so named (r186)): 0.035 | BI (PDZ domain PARD3-1, second of two lines so named (r187)): -0.073 | BI (PDZ domain PARD3-2): 0.074 | BI (PDZ domain PARD3B-1): -0.205 | BI (PDZ domain PARD3B-2): -0.04 | BI (PDZ domain PARD3B-3): -0.007 | BI (PDZ domain PARD6A-1): 0.007 | BI (PDZ domain PARD6G-1): -0.034 | BI (PDZ domain PCLO-1): -0.088 | BI (PDZ domain PDLIM1-1): -0.087 | BI (PDZ domain PDLIM3-1): -0.026 | BI (PDZ domain PDLIM4-1): -0.03 | BI (PDZ domain PDLIM5-1): -0.022 | BI (PDZ domain PDLIM7-1): -0.025 | BI (PDZ domain PDZD2-1): -0.095 | BI (PDZ domain PDZD2-2): 0.195 | BI (PDZ domain PDZD2-3): 0.017 | BI (PDZ domain PDZD2-5): -0.091 | BI (PDZ domain PDZD2-6): -0.026 | BI (PDZ domain PDZD4-1): 0.085 | BI (PDZ domain PDZD7-1): -0.051 | BI (PDZ domain PDZD7-3): 0.901 | BI (PDZ domain PDZD8-1): -0.202 | BI (PDZ domain PDZD9-1): -0.019 | BI (PDZ domain PDZD11-1): -0.017 | BI (PDZ domain PDZRN3-1): -0.019 | BI (PDZ domain PDZRN3-2): 0.016 | BI (PDZ domain PDZRN4-1): -0.064 | BI (PDZ domain PDZRN4-2): 0.099 | BI (PDZ domain PICK1-1): 0.052 | BI (PDZ domain PPP1R9A-1): 0.066 | BI (PDZ domain PPP1R9B-1): -0.044 | BI (PDZ domain PREX1-1): -0.014 | BI (PDZ domain PREX2-2): 0.096 | BI (PDZ domain PRX-1): -0.021 | BI (PDZ domain PSCDBP-1): -0.005 | BI (PDZ domain PSMD9-1): -0.007 | BI (PDZ domain PTPN3-1): 0.05 | BI (PDZ domain PTPN4-1): 0.02 | BI (PDZ domain PTPN13-1): -0.024 | BI (PDZ domain PTPN13-3): -0.028 | BI (PDZ domain PTPN13-5): -0.046 | BI (PDZ domain RADIL-1): 0.522 | BI (PDZ domain RAPGEF2-1): -0.076 | BI (PDZ domain RAPGEF6-1): 0.035 | BI (PDZ domain RGS3-1): -0.001 | BI (PDZ domain RGS12-1): 0.033 | BI (PDZ domain RHPN2-1): -0.044 | BI (PDZ domain RIMS1-1): -0.02 | BI (PDZ domain RIMS2-1): -0.022 | BI (PDZ domain SCRIB-2): 0.163 | BI (PDZ domain SCRIB-4): 0.058 | BI (PDZ domain SDCBP2-2): -0.013 | BI (PDZ domain SDCBP-2): -0.05 | BI (PDZ domain SHANK1-1): 0.152 | BI (PDZ domain SHANK2-1): 0.209 | BI (PDZ domain SHANK3-1): 0.235 | BI (PDZ domain SHROOM2-1): -0.072 | BI (PDZ domain SHROOM3-1): -0.048 | BI (PDZ domain SHROOM4-1): -0.073 | BI (PDZ domain SIPA1L2-1): -0.001 | BI (PDZ domain SIPA1L3-1): -0.046 | BI (PDZ domain SNTA1-1): 0.41 | BI (PDZ domain SNTB1-1): 0.548 | BI (PDZ domain SNTG1-1): 0.345 | BI (PDZ domain SNTG2-1): -0.077 | BI (PDZ domain STXB4-1): -0.072 | BI (PDZ domain SYNJ2BP-1): 0.023 | BI (PDZ domain SYNP2-1): 0.005 | BI (PDZ domain SYNPO2L-1): 0.063 | BI (PDZ domain TIAM1-1): -0.072 | BI (PDZ domain TIAM2-1): -0.008 | BI (PDZ domain TJP1-1): 0.198 | number of PDZ domains identified as potential binders (BI>0.20) (holdup, singlicate, threshold BI>0.20): 43 PDZ domains | maximal BI (holdup, singlicate, highest BI in the PDZome profile, BI standard error ~0.07): 0.90 | binding of several PDZ domains (in words) (including several ones from MAGI and NHERF): detectably bound | Max BI (maximum over PDZome): 0.90 | number of partners detected for PTEN_Ac and not for PTEN_KR (over a total of 43): 15
